Patent EP0133534A2, “Pyridyl compounds” (THE WELLCOME FOUNDATION LIMITED, priority 1983, dated 1985)

Assays:
[1] = system: histamine; assay: In vitro antihistaminic activity: shift of histamine concentration-response curves in isolated guinea-pig ileum longitudinal muscle (Schild plot); assay type: biochemical, guinea-pigs; settings: negative log of molar antagonist concentration shifting the control histamine concentration-response curve 2X to the right; tissue incubated one hour with test compound; 60 min
Method: A.Invitro antihistaminic activity: The longitudinal muscle was isolated from the intact ileum of guinea-pigs (Harley, male 250-400 g) and placed in an organ bath under 300 mg tension. After one hour of equilibration, cumulative concentration-response curves (Van Rossum, J.M., Arch. Int. Pharmacodyn. Ther. 143 299-330,1963) to histamine were obtained. Following washing, the tissues were incubated for one hour with the test compound and then a second histamine concentration-response curve was run. Shifts to the right of the agonist concentration-response curve produced by the antagonists were used to construct Schild plots (Arunlakshana, O. and Schild, H.O., Br. J. Pharmacol: 14, 48-58, 1959). Regression of Log (dr-1) on Log/B/, where dr is an equiactive response in the presence and absence of antagonist and /B/ is the molar concentration of antagonist, allowed an estimate of pA2, i.e. the negative log of the. concentration of antagonist which shifts the control histamine concentration-response curve 2X to the right.
The antihistaminic activities of compounds of the present invention are detailed in table A below.

[2] = system: histamine; settings: metabolite of triprolidine in man; known from prior art; cited from earlier work

Cc1ccc(/C(=C\CN2CCCC2)c2cccc(/C=C/c3nnn[nH]3)n2)cc1 [Example 1, 5-(E-6-[3-pyrrolidino-1-(4-tolyl)prop-1E-enyl]-2-pyridylvinyl)-1H-tetrazole]
pA2 [1]: 8.7

O=S(=O)(O)c1cccc(/C(=C/CN2CCCC2)c2ccccc2)c1 [Example 2, (E)-3-(1-phenyl-3-pyrrolidinoprop-1-enyl)-benzenesulphonic Acid]
pA2 [1]: 7.1

O=C(O)c1ccc(/C(=C\CN2CCCC2)c2ccccn2)cc1 [(E)-1-(4-carboxyphenyl)-1-(2-pyridyl)-3-pyrrolidinoprop-1-ene]
antihistamine activity [2]: little or no antihistamine activity

O=S(=O)(O)c1cccc(C(CCN2CCCC2)c2ccccc2)c1 (stereo not shown) [Example 3, 3-(1-phenyl-3-pyrrolidinopropyl) benzenesulphonic acid]
pA2 [1]: 7.3
